Test results taken from ChEMBL document CHEMBL4002601, “A triple exon-skipping luciferase reporter assay identifies a new CLK inhibitor pharmacophore” (Bioorg Med Chem Lett, 2017).

Molecular target: CDK4/Cyclin D3 (Homo sapiens, UniProt P11802)
Experiment: Inhibition of human CDK4/cyclinD3 using Histone H1 as substrate in presence of [gamma-33P]ATP after 40 mins by scintillation counter method
Format: protein-complex assay

CDK4/Cyclin D3, sequence (P11802 whole entry): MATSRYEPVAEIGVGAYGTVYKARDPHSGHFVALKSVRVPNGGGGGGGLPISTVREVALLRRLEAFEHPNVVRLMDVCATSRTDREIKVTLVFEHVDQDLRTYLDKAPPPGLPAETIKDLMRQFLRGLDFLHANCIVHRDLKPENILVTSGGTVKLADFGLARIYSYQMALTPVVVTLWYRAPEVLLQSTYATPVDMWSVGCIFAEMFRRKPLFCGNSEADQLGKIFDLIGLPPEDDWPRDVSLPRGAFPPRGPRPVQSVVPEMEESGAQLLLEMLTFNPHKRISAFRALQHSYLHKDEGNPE
CDK4/Cyclin D3, sequence (P30281 whole entry, further chain): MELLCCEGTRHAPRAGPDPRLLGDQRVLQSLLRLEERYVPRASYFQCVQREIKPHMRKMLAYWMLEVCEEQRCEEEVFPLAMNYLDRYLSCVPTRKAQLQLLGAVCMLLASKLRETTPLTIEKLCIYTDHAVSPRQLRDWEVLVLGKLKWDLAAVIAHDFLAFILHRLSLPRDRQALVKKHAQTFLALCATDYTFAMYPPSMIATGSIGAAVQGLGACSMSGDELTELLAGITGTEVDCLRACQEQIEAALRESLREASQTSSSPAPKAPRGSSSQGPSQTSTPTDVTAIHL

## CC(C)n1cnc2c(Nc3cccc(Cl)c3)nc(N[C@H]3CCCC[C@@H]3N)nc21
  IC50: > 1 µM

## CC(C)n1cnc2c(Nc3cccc(Cl)c3)nc(N[C@@H]3CCCC[C@@H]3N)nc21
  IC50: 0.541 µM
